Like-named read-outs stand apart in the source and are kept apart here.
Key:
NHDF fibroblasts = experiment: MTT growth inhibition in non-cancerous control cell line; type: cell-based; conditions: NHDF, normal human fibroblasts, read-out: in vitro growth inhibitory effects (IC50) in NHDF fibroblasts
Excerpt: (§1) The histological types and origins of the eight human cancer cell lines that were used for the MTT colorimetric assay are detailed in the legend of Table 1. Two mouse cancer cell lines were also used, the CT26.WT colon cancer cell line (ATCC code CRL-2638) and the B16F10 melanoma cell line (ATCC code CRL-6475). Both cell lines were obtained from the American Type Culture Collection (ATCC, Manassas, VA). A control cell line (human NHDF fibroblasts) was obtained from PromoCell (code c-12300; Heidelberg, Germany). The cell lines detailed in Figure 2A are a generous gift from the National Cancer Institute (NCI, Bethesda, USA) to Steven Karlish’s lab.
(§2) The cancer cells were cultured in RPMI (Lonza, Verviers, Belgium) medium supplemented with 10% heat-inactivated fetal calf serum (Lonza). All culture media were supplemented with 4 mM glutamine, 100 μg/mL gentamicin, 200 U/mL penicillin and 200 μg/mL streptomycin (Lonza). The NHDF fibroblasts were cultured in Lonza medium cc3132 KT FGM-2 BulletKit.
(§3) The overall growth level of the human cancer cell lines was determined using a colorimetric MTT (3-(4,5-dimethylthiazol-2yl)-2,5-diphenyltetrazolium bromide, Sigma, Belgium) assay as detailed previously. Briefly, this test measures the number of metabolically active (thus living) cells that are able to transform the yellow MTT into the blue formazan dye via a mitochondrial reduction involving succinate dehydrogenase. The amount of formazan obtained at the end of the experiment (measured by spectrophotometry) is directly proportional to the number of living cells. The determination of the optical density in the control compared to the treated cells therefore enables quantitative measurements of the effects of compounds on the growth of normal as well as cancer cells in vitro.
(§4) Each experimental condition was performed in six replicates.

human α1β1 NaK complex = target: T1, human α1β1 NaK complex (Homo sapiens, UniProt P05023); experiment: 3H-ouabain competitive displacement on P. pastoris membranes; type: binding; conditions: 3H-ouabain displacement, three independent experiments; read-out: Affinity (nM) α-1 (KD ± SEM)
T1 construct: made in house; host or cells: Pichia pastoris strain SMD1165 (membranes)
Procedure: (§5) K0.5 was calculated using a one site inhibition model: B/BCG=0 = K0.5/([CG] + K0.5). […] Binding of each cardiac glycoside was estimated in 3 separate experiments.
(§6) Average KD or Ki values ± SEM for each isoform were calculated. Statistical significance was calculated by the unpaired Students t-test. P values <0.05 were considered significant.

human α2β1 NaK complex = target: T2, human α2β1 NaK complex (Homo sapiens, UniProt P50993); experiment: as above; type: binding
T2 construct: made in house; host or cells: Pichia pastoris strain SMD1165 (membranes)
Procedure: as §5, §6

human α3β1 NaK complex = target: T3, human α3β1 NaK complex (Homo sapiens, UniProt P13637); experiment: as above; type: binding
T3 construct: made in house; host or cells: Pichia pastoris strain SMD1165 (membranes)
Procedure: as §5, §6

[1] = tested on: human cancer cells (A549, U373, Hs683, T98G, MCF-7, SKMEL-28, PC-3, HT-29); experiment: MTT growth inhibition, mean over the eight human cancer cell lines; type: cell-based; conditions: read-out: IC50 (nM) Mean ± SEM
Excerpt: as §1, §2, §3, §4

HT-29 colon cancer cells [2] = experiment: MTT colorimetric in vitro growth inhibition assay; type: cell-based, human; conditions: read-out: IC50 (nM) HT-29
Excerpt: as §1, §2, §3, §4

[3] = tested on: MCF-7 breast cancer cells; experiment: MTT colorimetric in vitro growth inhibition assay; type: cell-based, human; conditions: read-out: IC50 (nM) MCF-7
Excerpt: as §1, §2, §3, §4

T98G glioma cells = experiment: MTT colorimetric in vitro growth inhibition assay; type: cell-based, human; conditions: read-out: IC50 (nM) T98G
Excerpt: as §1, §2, §3, §4

[4] = tested on: PC-3 prostate cancer cells; experiment: MTT colorimetric in vitro growth inhibition assay; type: cell-based, human; conditions: read-out: IC50 (nM) PC-3
Excerpt: as §1, §2, §3, §4

SKMEL-28 melanoma cells = experiment: MTT colorimetric in vitro growth inhibition assay; type: cell-based, human; conditions: read-out: IC50 (nM) SKMEL-28
Excerpt: as §1, §2, §3, §4

A549 NSCLC cells = experiment: MTT colorimetric in vitro growth inhibition assay; type: cell-based, human; conditions: read-out: IC50 (nM) A549
Excerpt: as §1, §2, §3, §4

U373 glioma cells = experiment: MTT colorimetric in vitro growth inhibition assay; type: cell-based, human; conditions: read-out: IC50 (nM) U373
Excerpt: as §1, §2, §3, §4

Hs683 glioma cells = experiment: MTT colorimetric in vitro growth inhibition assay; type: cell-based, human; conditions: read-out: IC50 (nM) Hs683
Excerpt: as §1, §2, §3, §4

HT-29 colon cancer cells [5] = experiment: O2 consumption rate (MitoXpress assay); type: cell-based, human; conditions: compounds at their IC50 (MTT), 24 h
Procedure: For enzymatic determination of lactate production, confluent tumor cells were incubated with 10 mM glucose for 24 hours. Culture medium was then filtered through centrifugation columns with a 10 KDa cutoff, and L-lactate concentrations were determined on an ISCUSflex analyzer (CMA Microdialysis AB, Solna, Sweden). O2 consumption was determined using the MitoXpress assay according to the manufacturer’s instructions (LuxCell Biosciences, Cork, Ireland). Briefly, after adding the oxygen probe to tumor cells cultured for 24 hours in 96-well microplates with or without the tested compounds, the wells were sealed with mineral oil, and respiration was evaluated using time-resolved fluorescent plate readers. Under these conditions, O2 depletion was translated into an increase in probe phosphorescence signal, and the slope of this signal was used to derive the O2 consumption rate.
Figure 6 Metabolic profiling of human HT29 colon cancer cells treated with cardiotonic steroids. A: Extracellular lactate concentrations and B: O2 consumption rates in HT29 cancer cells treated with the indicated compounds at their IC50in vitro growth inhibitory concentrations (see Table 1). The data (mean ± SEM from triplicates) are expressed in mM lactate accumulated in the extracellular medium after 24 hours and arbitrary units derived from time-resolved fluorescent signal.min^-1.

[6] = target: T4, purified human α1β1 Na+/K+-ATPase (Homo sapiens, UniProt P05023); experiment: Inhibition of NaK activity of purified detergent-soluble complex (Pi release); type: biochemical; conditions: 37°C, 1 h, 1 mM ATP; read-out: Ki for inhibition of NaK activity of purified human α1β1
T4 construct: made in house; host or cells: Pichia pastoris strain SMD1165; detergent-soluble complex purified
Procedure: The inhibition of NaK activity of the purified detergent-soluble α1β1, α2β1, and α3β1 complexes by cardiotonic steroids and an analysis of the inhibition data (Ki values) were also performed as previously described. The inhibitors were added to the recombinant enzyme (0.08–0.2 μg of protein) in 400 μl of reaction medium containing 130 mM NaCl, 5 mM KCl, 3 mM MgCl2, 25 mM histidine, pH 7.4, 1 mM EGTA, 0.01 mg/ml SOPS, 0.001 mg/ml cholesterol, and 0.005 mg/ml C12 E8 in 48-well plates. The reaction (37°C for 1 h) was started by the addition of 1mM ATP. Pi release was measured with a malachite green dye to detect the phosphor-molybdate (Pi Color Lock, Innova Biosciences). The percent inhibition V /V0 was calculated for each cardiac glycoside concentration, and Ki values were obtained by fitting the data to the function V /V0 = Ki /([CG] + Ki ) (using Kaleidagraph). V0 and V represent the control rate and rate of NaK-ATPase activity at particular concentrations of cardiac glycosides, [CG], respectively.
as §6

[7] = 72 h, mean over eight human cancer cell lines, three days of culture
[8] = Homo sapiens, HT-29, 72 h, three days of culture, * three independent experiments, ** one experiment, six replicates
[9] = Homo sapiens, MCF7, 72 h, three days of culture, * three independent experiments, ** one experiment, six replicates
[10] = Homo sapiens, T98G, 72 h, three days of culture, * three independent experiments, ** one experiment, six replicates
[11] = Homo sapiens, 72 h, three days of culture, * three independent experiments, ** one experiment, six replicates
[12] = Homo sapiens, SK-MEL-28, 72 h, three days of culture, * three independent experiments, ** one experiment, six replicates
[13] = Homo sapiens, A549, 72 h, three days of culture, * three independent experiments, ** one experiment, six replicates
[14] = Homo sapiens, U373 MG, 72 h, three days of culture, * three independent experiments, ** one experiment, six replicates
[15] = Homo sapiens, Hs 683, 72 h, three days of culture, * three independent experiments, ** one experiment, six replicates
[16] = three days of culture, * three independent experiments, ** one experiment, six replicates

Row | Structure (SMILES) | IC50 ([1]; Homo sapiens, 72 h) [nM] | IC50 (HT-29 colon cancer cells [2]; Homo sapiens, HT-29, 72 h) [nM] | IC50 ([3]; Homo sapiens, MCF7, 72 h) [nM] | IC50 (T98G glioma cells; Homo sapiens, T98G, 72 h) [nM] | IC50 ([4]; Homo sapiens, 72 h) [nM] | IC50 (SKMEL-28 melanoma cells; Homo sapiens, SK-MEL-28, 72 h) [nM] | IC50 (A549 NSCLC cells; Homo sapiens, A549, 72 h) [nM] | IC50 (U373 glioma cells; Homo sapiens, U373 MG, 72 h) [nM] | IC50 (Hs683 glioma cells; Homo sapiens, Hs 683, 72 h) [nM] | IC50 [1, 7] [nM] | IC50 (HT-29 colon cancer cells [2]; [8]) [nM] | IC50 [3, 9] [nM] | IC50 (T98G glioma cells; [10]) [nM] | IC50 [4, 11] [nM] | IC50 (SKMEL-28 melanoma cells; [12]) [nM] | IC50 (A549 NSCLC cells; [13]) [nM] | IC50 (U373 glioma cells; [14]) [nM] | IC50 (Hs683 glioma cells; [15]) [nM] | further results
1 | C[C@]12CC[C@H](O)C[C@H]1CC[C@@H]1[C@@H]2[C@H](O)C[C@]2(C)[C@@H](c3ccc(=O)oc3)CC[C@]12O [Gamabufotalin, gamabufotalin] | 26 ± 4 | 37 ± 3 | 40 ± 7 | 31 ± 8 | 22 ± 4 | 22 ± 1 | 7 ± 1 | 34 ± 1 | 14 ± 3 |  |  |  |  |  |  |  |  |  | IC50 (NHDF fibroblasts): > 10000 nM; Kd (human α1β1 NaK complex): 243 ± 48 nM; Kd (human α2β1 NaK complex; 3H-ouabain displacement, three independent experiments, read-out: Affinity (nM) α-2 (KD ± SEM)): 247 ± 30 nM; Selectivity α-1 / α-2 (human α2β1 NaK complex; ratio of KD α-1 to KD α-2): 1.0; Kd (human α3β1 NaK complex; 3H-ouabain displacement, three independent experiments, read-out: Affinity (nM) α-3 (KD ± SEM)): 236 ± 14 nM; Selectivity α-1 / α-3 (human α3β1 NaK complex; ratio of KD α-1 to KD α-3): 1.0
2 | C[C@H]1O[C@@H](O[C@H]2[C@@H](O)C[C@H](O[C@H]3[C@@H](O)C[C@H](O[C@H]4CC[C@@]5(C)[C@H](CC[C@@H]6[C@@H]5C[C@@H](O)[C@]5(C)[C@@H](C7=CC(=O)OC7)CC[C@]65O)C4)O[C@@H]3C)O[C@@H]2C)C[C@H](O)[C@@H]1O [Digoxin, digoxin] |  |  |  |  |  |  |  |  |  | 202 ± 37 | 208 ± 20 | 363 ± 35 | 274 ± 17 | 215 ± 71 | 220 ± 26 | 60 ± 7 | 227 ± 42 | 51 ± 6 | O2 consumption rate (cell respiration) (HT-29 colon cancer cells [5]): significantly reduced
3 | C[C@]12CC[C@H](O)C[C@H]1CC[C@@H]1[C@@H]2C[C@@H](O)[C@]2(C)[C@@H](C3=CC(=O)OC3)CC[C@]12O [Digoxigenin, digoxigenin] |  |  |  |  |  |  |  |  |  | 2900 | 4460 | 5320 | 1170 | 3880 | 4000 | 395 ± 34 | 3190 | 794 ± 22 | 
4 | C[C@H]1O[C@@H](O[C@H]2[C@@H](O)C[C@H](O[C@H]3[C@@H](O)C[C@H](O[C@H]4CC[C@@]5(C)[C@H](CC[C@@H]6[C@@H]5CC[C@]5(C)[C@@H](C7=CC(=O)OC7)CC[C@]65O)C4)O[C@@H]3C)O[C@@H]2C)C[C@H](O)[C@@H]1O [Digitoxin, digitoxin] |  |  |  |  |  |  |  |  |  | 75 ± 26 | 198 | 187 | 32 | 37 | 59 | 11 | 61 | 15 | 
5 | C[C@]12CC[C@H](O)C[C@H]1CC[C@@H]1[C@@H]2CC[C@]2(C)[C@@H](C3=CC(=O)OC3)CC[C@]12O [Digitoxigenin] | 733 ± 349 | 230 | 2130 | 166 | 298 | 2500 | 92 | 369 | 79 |  |  |  |  |  |  |  |  |  | 
6 | C[C@]12C[C@@H](O)[C@H]3[C@@H](CC[C@]4(O)C[C@@H](O)C[C@@H](O)[C@]34CO)[C@@]1(O)CC[C@@H]2C1=CC(=O)OC1 [Ouabagenin, ouabagenin] |  |  |  |  |  |  |  |  |  |  |  |  |  |  |  |  |  |  | IC50 ([1]; mean over eight human cancer cell lines, three days of culture): 3050 nM; Ki [6]: 721 ± 70 nM; IC50 (HT-29 colon cancer cells [2]; [16]): 3480 nM; IC50 [3, 16]: 4010 nM; IC50 (T98G glioma cells; [16]): 3600 nM; IC50 [4, 16]: 2710 nM; IC50 (SKMEL-28 melanoma cells; [16]): 2560 nM; IC50 (A549 NSCLC cells; [16]): 866 ± 25 nM; IC50 (U373 glioma cells; [16]): 5280 nM; IC50 (Hs683 glioma cells; [16]): 1900 nM
